From patent publication US20260242745A1, “TISSUE ENGINEERED TUBE USING STEM CELL, AND METHOD FOR PRODUCING SAME” (TOHOKU UNIVERSITY, priority 2023, published 2026) come the findings set out here.

For assay [1], the system named is artificial blood vessels produced from iPS cells derived from Werner syndrome patients (WS2-C5 co-culture). The assay can be described thus: Contraction of artificial blood vessels produced from Werner syndrome patient iPS cells compared with those from healthy subjects. The class given is cell-based, human. To be noted: for contraction against stimulation, WS2-C5 co-culture vs 201B7 co-culture: n=4, FIG. 9A; for relative contraction rate, Werner derived vs WT derived iPSC blood vessels: 200 nM U46619 or 100 nM angiotensin II, contraction amount with 100 mM KCl as 100%, FIG. 9B. As to the method:
Next, reactions to U46619 and KCl were analyzed using artificial blood vessels produced from Werner syndrome patients iPS (FIG. 9A). iPS cells derived from healthy subjects and Werner syndrome patients were induced to differentiate into smooth muscle cells and blood vessel endothelial cells to produce artificial blood vessels as described above, and contraction with respect to U46619 and KCl was analyzed.
In addition to U46619, the relative contraction rate was also determined for angiotensin II (FIG. 9B). The artificial blood vessel was contracted by 200 nM U46619 or 100 nM angiotensin II, and the relative contraction rate was calculated with the contraction amount when 100 mM KCl was applied as 100%. […] Hereinafter, the artificial blood vessels produced using iPS cells derived from healthy subjects may be referred to as WT derived iPSC blood vessels, and the artificial blood vessels produced using iPS cells derived from Werner syndrome patients may be referred to as Werner derived iPSC blood vessels.
Artificial blood vessels were produced from iPS cells derived from healthy subjects and Werner syndrome patients and subjected to perfusion culture, and the contraction by U46619 was analyzed (FIG. 9C). […] This is considered to be caused by a decrease in NO production ability of blood vessel endothelial cells derived from iPS cells of Werner syndrome patients.

Assay [2] deals with artificial blood vessels produced from 201B7 cells (iPS cells derived from healthy subjects). The assay can be described thus: Contraction of artificial blood vessels produced from 201B7 iPS cells in response to physiologically active substances. The class given is cell-based, human. The settings on record: for contraction rate after perfusion culture: 201B7 co-culture, immediately after start of perfusion culture vs third day of perfusion, FIG. 8B; for contraction reaction: artificial blood vessel of smooth muscle cells alone (201B7 vSMC) compared with 201B7 co-culture with endothelial cells, FIG. 8A; for concentration dependence of contraction rate: iPS cells derived from healthy subjects, U46619 0.05 nM to 0.5 nM, endothelin-1 100 nM to 1000 nM, n=5, FIG. 8C; for contraction reaction (same as with U46619): artificial blood vessels produced from 201B7 cells, physiological vasoconstrictors. On the procedure: Next, it was analyzed whether the produced tissue engineered tube reproduces physiological reactions such as contraction and expansion with respect to a physiologically active substance. First, regarding artificial blood vessels produced from 201B7 cells, an artificial blood vessel of only smooth muscle cells (201B7 vSMC) and an artificial blood vessel obtained by seeding and co-culturing blood vessel endothelial cells induced to differentiate from 201B7 in an artificial blood vessel lumen (201B7 co-culture) were produced, and the contraction reaction due to U46619 and KCl was analyzed (FIG. 8A). U46619 is a stable synthetic analog of prostaglandin PGH2 and has an action of inducing blood vessel contraction as a thromboxane A2 receptor agonist. KCl is known to induce blood vessel contraction by membrane potential change. Since an individual difference may occur under a normal contraction amount, U46619 relative is a normalized value obtained by dividing the contraction amount when U46619 is applied by the contraction amount when KCl is applied, which indicates the maximum contraction force. […] NO is a vasodilator and is known to be released from blood vessel endothelial cells. Therefore, it is recognized that the produced artificial blood vessel reproduces the physiological mechanism. […] In the following experiments, artificial blood vessels co-cultured with endothelial cells were used unless otherwise specified.
In order to maintain a more physiological environment, perfusion culture was performed to examine whether the contraction rate was improved (FIG. 8B). Immediately after the start of perfusion culture, U46649 or KCl was applied to an artificial blood vessel produced from 201B7 cells (201B7 co-culture) on the third day of perfusion to analyze the contraction rate. […] It is known that blood vessel tissues change in phenotype, orientation, and the like and mature due to shear stress and blood pressure caused by perfusion culture.
It was analyzed whether the contraction of the artificial blood vessel with respect to U46619 and endothelin-1 depended on the concentration. Artificial blood vessels were produced using iPS cells derived from healthy subjects, and the contraction rates were measured while changing the concentrations of U46619 (0.05 nM to 0.5 nM) and endothelin-1 (100 nM to 1000 nM) (n=5). […] Therefore, it is recognized that the produced artificial blood vessels has have physiological properties.

Bridges are numbered along the chain shown (N, C = ends). Where no end group is shown, it is not given here.

With `[Cl-].[K+]` [KCl], the “contraction against stimulation, WS2-C5 co-culture vs 201B7 co-culture” value in assay [1] is given as “tended to contract more strongly”. Besides, in assay [2], the “contraction rate after perfusion culture” value was “an improvement in contraction rate due to perfusion culture was observed” and the contraction reaction result is “high contraction was observed”.

Regarding `CCCCC[C@H](O)/C=C/[C@@H]1[C@@H](C/C=C\CCCC(=O)O)[C@H]2CO[C@@H]1C2` [U46619], in assay [1], the “relative contraction rate, Werner derived vs WT derived iPSC blood vessels” value was “exhibited stronger contraction force” and the “contraction against stimulation, WS2-C5 co-culture vs 201B7 co-culture” value is “tended to contract more strongly”. Further, the “contraction after perfusion culture, Werner derived vs WT derived iPSC blood vessels” value in assay [1] (perfusion culture, FIG. 9C) is on record as “an increase in contraction force was observed”. In assay [2], the “contraction rate after perfusion culture” value is reported as “an improvement in contraction rate due to perfusion culture was observed”, the contraction reaction result was “high contraction was observed” and the “concentration dependence of contraction rate” value was “contracted in a concentration-dependent manner”.

With “angiotensin II (DRVYIHPF; Angiotensin-2; UniProt P01019 25-32, looked up) [physiological vasoconstrictor]”, the “relative contraction rate, Werner derived vs WT derived iPSC blood vessels” value in assay [1] is “exhibited stronger contraction force”. The “contraction reaction (same as with U46619)” value in assay [2] is “the same contraction reaction occurs”.

Turning to “endothelin-1 (CSCSSLMDKECVYFCHLDIIW; disulfide 1-15, 3-11; ends not checked; UniProt P05305 53-73, looked up) [physiological vasoconstrictor]”, in assay [2], the “contraction reaction (same as with U46619)” value is reported as “the same contraction reaction occurs” and the “concentration dependence of contraction rate” value was “contracted in a concentration-dependent manner”.
